In data set [1] the test system is CT26 colorectal cancer model. The data set can be described thus: Study S082015: single agent merestinib in CT26 syngeneic mouse tumor model. Type of data set: in vivo. To be noted: for Body weight change from baseline (%) / T/C %: Day 26. As for the experimental part: A syngeneic mouse tumor model is used to evaluate potential combination effect of merestinib and anti-PD-L1 antibody is the CT26 colorectal cancer model using the mouse colorectal cancer line CT26. This experiment is conducted in immune competent mice (Grosso and Jure-Kunkel, Cancer Immunity Vol. 13, p. 5, January 2013; Duraiswamy et al, Cancer Research, Jun. 15, 2013 73; 3591.). Anti-PD-L1 antibody surrogate (178G7, LSN3370181) (Eppihimer et al. Microcirculation 2002:9(2):133) is used in the mouse study.
Female BALB/c mice (18-20 gm) from Envigo (Harlan Laboratories) are used for this study. Food and water are available ad libitum. Animals are acclimated for one week prior to any experimental manipulation. The study is performed in accordance with AALAC accredited institutional guidelines.
Merestinib is formulated as a solution in 10% PEG 400 in 90% (20% Captisol in water) once weekly. Anti-PD-L1 antibody (178G7, LSN3370181) is formulated in PBS (phosphate buffered saline).
CT26 cells (from internal in vivo pharmacology cell culture group lot CT26.WT.3184878) are used for implantation. Approximately 1×10^6 cells in HBSS are implanted subcutaneously into the right hind flank of the animal under anesthesia.
Study S082015 has four groups: 1) vehicle control (10% PEG 400 in 90% [20% Captisol in water]) dosed orally once daily for 21 days; 2) single agent merestinib at 6 mg/kg once daily orally for 21 days; 3) single agent merestinib at 12 mg/kg once daily orally for 21 days; 4) single agent merestinib at 24 mg/kg once daily orally for 21 days. Dosing of merestinib is initiated at Day 6 post-implant of the CT26 cells. There are 15 animals per group. Five animals per group are taken down on Day 13 and on Day 20 post-implant of CT26 cells for the harvesting of spleens and tumors for the interrogation of the effect of merestinib on immune functions. Five animals per group remain to the end of the study (Day 26). Tumor volumes and body weight are measured bi-weekly. Tumor volume is estimated by using the formula: v=l×w2×0.536 where l=larger of measured diameter and w=smaller of perpendicular diameter. At the end of the study, animals are sacrificed using CO2 and cervical dislocation.
Tumor volume is transformed to the log scale to equalize variance across time and treatment groups. The log volume data are analyzed with a two-way repeated measures analysis of variance by time and treatment using the MIXED procedures in SAS software (Version 9.3). The correlation model for the repeated measures is spatial power. Treated groups are compared to the control group at each time point. The MIXED procedure is also used separately for each treatment group to calculate least squares means and standard errors at each time point. Both analyses account for the autocorrelation within each animal and the loss of data that occurs when animals are removed or lost before Day 33.

Data set [2] has as its system CT26 cells. The data set can be described thus: CT26 cell proliferation. To be noted: Mus musculus, in vitro. Format: cell-based. How it is done:
CT26 CRC tumor cells harbor KRAS activating mutation G12D. […] CT26 cells also express high level of phospho-AXL (p-AXL) by western blot analysis and merestinib is shown to decrease p-AXL in vitro by more than 60% at a concentration of 500 nM in the mouse phospho-RTK array, but show very little effect on CT26 cell proliferation (IC50>20 μM).

SMILES strings stand for the structures. Some results are limits rather than exact numbers.

As usually defined, the IC50 is the concentration at which inhibition is half-maximal. Lower therefore signals inhibition by little substance.

For `Cc1ccc(C(=O)Nc2ccc(Oc3cc4cnn(C)c4cc3-c3cn[nH]c3)c(F)c2)c(=O)n1-c1ccc(F)cc1` [merestinib, N-(3-fluoro-4-(1-methyl-6-(1H-pyrazol-4-yl)-1H-indazol-5-yloxy)phenyl)-1-(4-fluorophenyl)-6-methyl-2-oxo-1,2-dihydropyridine-3-carboxamide], the “Body weight change from baseline (%)” value amounted to 5.7% in data set [1] (6 mg/kg once daily orally), 3.4% in data set [1] (12 mg/kg once daily orally) and 3.0% in data set [1] (24 mg/kg once daily orally). Moreover, the T/C % in data set [1] (6 mg/kg once daily orally) came to 52.8%; in data set [1] (12 mg/kg once daily orally), 34.8%; in data set [1] (24 mg/kg once daily orally) it was 13.4%. Further, in data set [1] (24 mg/kg dose), the “anti-tumor effect” value is “tumor stasis”. The “anti-tumor effect as compared to vehicle control” value in data set [1] (6, 12, 24 mg/kg once daily orally) was “significant anti-tumor effect”. Also, the tolerability result in data set [1] (all three doses (6, 12, 24 mg/kg), no significant loss in body weight) is on record as “well tolerated”. This molecule also returned an IC50 in data set [2] greater than 20 µM.

For the origin of these results see patent publication US20190269666A1, “COMBINATION THERAPY WITH MERESTINIB AND ANTI-PD-L1 OR ANTI-PD-1 INHIBITORS FOR USE IN THE TREATMENT OF CANCER” (Eli Lilly and Company, priority 2016, published 2019).
